Experimental data as given in PubChem BioAssay AID1996.
≈ marks a conversion by molar mass, not a printed value.

Settings: buffer; pH 7.4; 200.0 µM

Row | SMILES | solubility kinetic
1 | CC(=O)c1c(O)c2cccc3c2n(c1=O)CCC3 | > 36.5 µg/mL
2 | COc1ccc(CC(=O)OC(C)C(=O)Nc2c(C)n(C)n(-c3ccccc3)c2=O)cc1OC (stereo not given) | > 68 µg/mL
3 | Cc1ccc(C23CC4CC(CC(C(=O)NC(C(=O)O)C(C)C)(C4)C2)C3)cc1 (stereo not given) | 48.1 µg/mL (≈ 130 µM)
4 | Cc1c(O)nc2ccccn2c1=O | > 26.4 µg/mL
5 | CCOc1ccccc1-c1noc(CCC(=O)NC2CCCCC2)n1 | 46.2 µg/mL (≈ 135 µM)
6 | CCN(CC)Cc1c(O)ccc2c(=O)c(Oc3ccccc3OC)c(C)oc12 | > 57.5 µg/mL
7 | Cc1noc(C)c1C(=O)Nc1cc(Cl)ccc1N1CCOCC1 | 13.5 µg/mL (≈ 40.2 µM)
8 | COc1ccc(OCC(O)CNC(=O)Nc2cccc3ccccc23)cc1 (stereo not given) | 4.3 µg/mL (≈ 11.7 µM)
9 | O=C(Nc1ccc(SC(F)F)cc1)c1ccccc1F | 6.1 µg/mL (≈ 20.5 µM)
10 | Cc1ccc(C(=O)OCC(=O)N(Cc2ccccc2)C(C)C)cc1C | 16.8 µg/mL (≈ 49.5 µM)
11 | COC(=O)CNC(=O)CCc1nnc(C2(c3ccc(Cl)cc3)CCC2)o1 | > 56.7 µg/mL
12 | CC(Sc1nccn1C)C(=O)NC1(C#N)CCCCC1 (stereo not given) | > 43.9 µg/mL
13 | O=C(CN1CCc2ccccc2C1)Nc1ccccc1F | 39.4 µg/mL (≈ 139 µM)
14 | CC(C)N(c1ccccc1)c1ccc(NC(=S)NCCN(C)C)cc1 | 44 µg/mL (≈ 123 µM)
15 | O=C(NCc1ccc(F)cc1F)c1cc(COc2c(F)cccc2F)on1 | 1.5 µg/mL (≈ 3.94 µM)
16 | CCCOc1cc(C)c(S(=O)(=O)NCc2cccs2)cc1C | 9.1 µg/mL (≈ 26.8 µM)
17 | Cc1csc(NC(=O)c2ccc(S(C)(=O)=O)cc2)n1 | > 44.5 µg/mL
18 | CCc1nc2ccccc2c(C(=O)OCC(=O)Nc2ccc(NC(C)=O)cc2)c1C | 12.1 µg/mL (≈ 29.8 µM)
19 | CCN1CCN(C2CC(=O)NC2=O)CC1 (stereo not given) | > 31.7 µg/mL
20 | O=S(=O)(NC1CCCCCCC1)c1ccc(F)cc1 | > 42.8 µg/mL

Row | SMILES | solubility kinetic
21 | O=S(=O)(NCc1ccco1)c1cnc(Cl)c(Cl)c1 | > 46.1 µg/mL
22 | Cc1ccc(S(=O)(=O)N2CCN(c3ccccc3)CC2)cc1 | < 0.3 µg/mL
23 | O=C(O)C1C2CCC(O2)C1C(=O)Nc1cccc(Br)c1 (stereo not given) | 50.7 µg/mL (≈ 149 µM)
24 | CC(C)NC(=O)CN1C(=O)c2cccc3cccc1c23 | 9.8 µg/mL (≈ 36.5 µM)
25 | O=C(Cc1ccc(-c2ccccc2)cc1)Nc1ccccc1 | 1.7 µg/mL (≈ 5.92 µM)
26 | CC(=O)Nc1ccc(S(=O)(=O)NC(C)c2ccccc2)cc1 (stereo not given) | > 47.8 µg/mL
27 | CCOC(=O)CC(NC(=O)c1ccc(C)cc1)c1ccc(OC)cc1 (stereo not given) | 8.5 µg/mL (≈ 24.9 µM)
28 | Cc1cc(C(=O)N(C)C2CCCCC2)no1 | > 33.3 µg/mL
29 | O=C(Nc1ccc(S(=O)(=O)N2CCCCC2)cc1)C1CC1 | > 46.3 µg/mL
30 | O=C(NCCc1ccccc1)C(=O)NCC1CCNCC1 | > 43.4 µg/mL
31 | O=C(N1CCCC1)C12CC3CCC(CC(C3)C1)C2 | 28.4 µg/mL (≈ 115 µM)
32 | CCN(CC)CC1C(=O)N(c2ccc(OC)cc2)C1c1ccccc1 (stereo not given) | > 50.8 µg/mL
33 | Cc1ccc(Cl)cc1NC(=O)COc1ccccc1 | 1.9 µg/mL (≈ 6.89 µM)
34 | CC1Cc2ccccc2N1C(=O)c1ccc2c(c1)OCO2 (stereo not given) | > 42.2 µg/mL
35 | CC(=O)c1ccc(NC(=O)COC(=O)c2ccc(F)cc2F)cc1 | 15.2 µg/mL (≈ 45.6 µM)
36 | CCOC(=O)CNC(=O)CSc1nc(-c2ccc(OC)cc2)ns1 | 2.8 µg/mL (≈ 7.62 µM)
37 | O=C(NCc1ccc2c(c1)OCO2)C1CCC(=O)N1C1CCCC1 (stereo not given) | > 49.6 µg/mL
38 | CC1CCCCC1NC(=O)c1cc(S(=O)(=O)N2CCOCC2)ccc1Cl (stereo not given) | 16.7 µg/mL (≈ 41.7 µM)
39 | COc1cc(CNC(=O)c2cnc(C)cn2)cc(OC)c1 | > 43.1 µg/mL
40 | N#C/C(=C\c1ccc(OCC(N)=O)cc1)C(=O)NC1CC1 | > 42.8 µg/mL

Row | SMILES | solubility kinetic
41 | Fc1ccc(CNCc2ccco2)cc1 | 11.8 µg/mL (≈ 57.5 µM)
42 | O=C(NCC(=O)N1CCN(c2ncccn2)CC1)c1ccccc1F | > 51.5 µg/mL
43 | COc1ccc(CCN2C(=S)N(c3ccccc3)C(=O)C2CC(=O)O)cc1OC (stereo not given) | > 62.2 µg/mL
44 | Cc1ccc(C(=O)C(C)Sc2nnc(N)s2)cc1 (stereo not given) | > 41.9 µg/mL
45 | COc1cccc(NC(=O)COC(=O)C2C3CC4OC(=O)C2C4C3)c1 (stereo not given) | 49.5 µg/mL (≈ 143 µM)
46 | CN(Cc1ccccc1)S(=O)(=O)c1cccc2nsnc12 | 3 µg/mL (≈ 9.39 µM)
47 | O=C(/C=C/c1c(F)cccc1Cl)Nc1cccnc1 | 13.7 µg/mL (≈ 49.5 µM)
48 | CC(=O)Cn1c(CN2CCCCC2)nc2ccccc2c1=O | > 44.9 µg/mL
49 | COc1ccc(-n2c(N)cc(=O)[nH]c2=O)cc1 | > 35 µg/mL
50 | CC1=C(C(=O)Nc2ccccc2)S(=O)(=O)CCO1 | 38 µg/mL (≈ 142 µM)
51 | N#Cc1ccccc1COC(=O)c1cc(=O)c2ccccc2o1 | 16.7 µg/mL (≈ 54.7 µM)
52 | COc1cc(S(=O)(=O)N2CCOCC2)ccc1NC(=O)COC(=O)c1ccc(Cl)nc1 | 6.4 µg/mL (≈ 13.6 µM)
53 | COc1cc(/C=C/C(=O)O)cc(S(=O)(=O)NCC2CCCO2)c1OC (stereo not given) | 53.3 µg/mL (≈ 144 µM)
54 | NC(=O)c1ccc(NC(=O)CN2CCOCC2)cc1 | 35.6 µg/mL (≈ 135 µM)
55 | CCc1nc2ccc(C(=O)Nc3ccc4c(c3)OCO4)cc2nc1CC | 1.6 µg/mL (≈ 4.58 µM)
56 | Cc1cnc(C(=O)OCC(=O)Nc2ccc(C)c(S(=O)(=O)N3CCOCC3)c2)cn1 | > 65.2 µg/mL
57 | CN1C(CC(=O)Nc2ccc(Cl)cc2Cl)c2ccccc2CC1(C)C (stereo not given) | 10 µg/mL (≈ 26.5 µM)
58 | N#Cc1c(/N=C/c2ccc(-c3ccccc3C(=O)O)o2)sc2c1CCCC2 | > 56.5 µg/mL
59 | CCOC(=O)N1CCN(C(=O)COC(=O)c2cc(C)ccc2C)CC1 | > 52.3 µg/mL
60 | CCN(CCS(=O)(=O)c1ccc(Cl)cc1)C(=O)Nc1ccc(Cl)cc1 | 43.2 µg/mL (≈ 108 µM)
